Experimental data as given in patent US8137705B2 (priority 2005, dated 2012).
“Also recorded” adds a separate entry of the source.

What was measured:
Assay type in all cases: cell-based
E. coli O157:H7 [1] = test: E. coli O157:H7 counts in water containing rumen content or feces treated with chemicals or chemical combinations; conditions: for E. coli O157:H7 counts (log10 cfu/ml) at min 0 / E. coli O157:H7 counts (log10 cfu/ml) at min 2 / E. coli O157:H7 counts (log10 cfu/ml) at min 5 / E. coli O157:H7 counts (log10 cfu/ml) at min 10 / E. coli O157:H7 counts (log10 cfu/ml) at min 20 / E. coli O157:H7 counts (log10 cfu/ml) at min 30 / E. coli O157:H7 counts (log10 cfu/ml) at min 60 / E. coli O157:H7 counts (log10 cfu/ml) at min 120: 21° C.; for E. coli O157:H7 counts (log10 cfu/ml) at min 0: 0 min; for E. coli O157:H7 counts (log10 cfu/ml) at min 2: 2 min; for E. coli O157:H7 counts (log10 cfu/ml) at min 5: 5 min; for E. coli O157:H7 counts (log10 cfu/ml) at min 10: 10 min; for E. coli O157:H7 counts (log10 cfu/ml) at min 20: 20 min; for E. coli O157:H7 counts (log10 cfu/ml) at min 30: 30 min; for E. coli O157:H7 counts (log10 cfu/ml) at min 60: 60 min; for E. coli O157:H7 counts (log10 cfu/ml) at min 120: 120 min
E. coli O111:NM = E. coli O111:NM counts in water containing rumen content or feces treated with chemical combinations; conditions: 21° C.; for E. coli O111:NM counts (log10 cfu/ml) at min 0: 0 min; for E. coli O111:NM counts (log10 cfu/ml) at min 2: 2 min; for E. coli O111:NM counts (log10 cfu/ml) at min 5: 5 min; for E. coli O111:NM counts (log10 cfu/ml) at min 10: 10 min; for E. coli O111:NM counts (log10 cfu/ml) at min 20: 20 min; for E. coli O111:NM counts (log10 cfu/ml) at min 30: 30 min; for E. coli O111:NM counts (log10 cfu/ml) at min 60: 60 min; for E. coli O111:NM counts (log10 cfu/ml) at min 120: 120 min
E. coli O26:H11 = E. coli O26:H11 counts in water containing rumen content or feces treated with chemical combinations; conditions: 21° C.; for E. coli O26:H11 counts (log10 cfu/ml) at min: 0: 0 min; for E. coli O26:H11 counts (log10 cfu/ml) at min: 2: 2 min; for E. coli O26:H11 counts (log10 cfu/ml) at min: 5: 5 min; for E. coli O26:H11 counts (log10 cfu/ml) at min: 10: 10 min; for E. coli O26:H11 counts (log10 cfu/ml) at min: 20: 20 min; for E. coli O26:H11 counts (log10 cfu/ml) at min: 30: 30 min; for E. coli O26:H11 counts (log10 cfu/ml) at min: 60: 60 min; for E. coli O26:H11 counts (log10 cfu/ml) at min: 120: 120 min
E. coli O157:H7 [2] = test: E. coli O157:H7 counts in water with rumen content treated with ozone; conditions: for E. coli O157:H7 (log10 cfu/ml) at min: 0: 0 min; for E. coli O157:H7 (log10 cfu/ml) at min: 1: 1 min; for E. coli O157:H7 (log10 cfu/ml) at min: 2: 2 min; for E. coli O157:H7 (log10 cfu/ml) at min: 5: 5 min; for E. coli O157:H7 (log10 cfu/ml) at min: 10: 10 min; for E. coli O157:H7 (log10 cfu/ml) at min: 20: 20 min
Experimental: Ozone was produced by an laboratory scale ozone generator (Model H-50, Hess Machine International, Ephrata, Pa.) equipped with an oxygen concentrator (Model AS-12, AirSep, Buffalo, N.Y.) and ozone concentrations (ppm) were measured by the indigo calorimeter method. Ozonated (22-24 ppm at 5° C.) water was mixed with rumen content at ratios of 100:1, 50:1, 25:1, 10:1, and 5:1. MilliQ water (Milli-Q Synthesis A10, Millipore Corp. Brillerica, Mass.) was used as the control. One ml of a mixture of 5 strains of E. coli O157:H7 (10^8 cfu) was mixed with 199 ml of the ozonated water with rumen content at 5° C. and sampled from 0 to 20 min. At each sampling time, 1 ml was removed, and immediately mixed with 9 ml of neutralizing buffer and serially (1:10) diluted and a volume of 0.1 ml from each dilution tube was plated on SMA-NA and TSA-NA plates in duplicate. Plates were incubated at 37° C. for 24 h. Presumptive E. coli O157:H7 colonies were counted and confirmed according to the method described above. All studies were done in duplicate.

[3] = water containing feces (20:1, v/w)
[4] = water containing rumen content (10:1, v/w)
[5] = 22-24 ppm ozone, Ozonated water only (no rumen content), 5° C.
[6] = 22-24 ppm ozone, water:rumen content 20:1, 5° C.
[7] = 22-24 ppm ozone, water:rumen content 50:1, 5° C.
[8] = 22-24 ppm ozone, water:rumen content 100:1, 5° C.
[9] = 22-24 ppm ozone, water:rumen content 200:1, 5° C.

## CCCCCCCC(=O)O [0.05% caprylic acid, caprylic acid]
E. coli O157:H7 [1]; butyric acid >2%, caprylic acid >0.1%, data not shown
  inactivation of E. coli O157:H7 within 20 minutes: substantial inactivation
E. coli O157:H7 [1]; [3]
  E. coli O157:H7 counts (log10 cfu/ml) at min 0: 6.0 log10 cfu/ml
  E. coli O157:H7 counts (log10 cfu/ml) at min 2: 5.6 log10 cfu/ml
  E. coli O157:H7 counts (log10 cfu/ml) at min 5: 4.3 log10 cfu/ml
  E. coli O157:H7 counts (log10 cfu/ml) at min 10: 2.3 log10 cfu/ml
  E. coli O157:H7 counts (log10 cfu/ml) at min 20: 2.0 log10 cfu/ml
  E. coli O157:H7 counts (log10 cfu/ml) at min 30: 2.0 log10 cfu/ml
  E. coli O157:H7 counts (log10 cfu/ml) at min 60: 2.0 log10 cfu/ml
  E. coli O157:H7 counts (log10 cfu/ml) at min 120: 1.7 log10 cfu/ml
E. coli O157:H7 [1]; [4]
  E. coli O157:H7 counts (log10 cfu/ml) at min 0: 6.0 log10 cfu/ml
  E. coli O157:H7 counts (log10 cfu/ml) at min 2: 6.0 log10 cfu/ml
  E. coli O157:H7 counts (log10 cfu/ml) at min 5: 6.0 log10 cfu/ml
  E. coli O157:H7 counts (log10 cfu/ml) at min 10: 5.9 log10 cfu/ml
  E. coli O157:H7 counts (log10 cfu/ml) at min 20: 6.0 log10 cfu/ml
  E. coli O157:H7 counts (log10 cfu/ml) at min 30: 5.9 log10 cfu/ml
  E. coli O157:H7 counts (log10 cfu/ml) at min 60: 5.9 log10 cfu/ml
  E. coli O157:H7 counts (log10 cfu/ml) at min 120: 6.0 log10 cfu/ml
E. coli O111:NM; [3]
  E. coli O111:NM counts (log10 cfu/ml) at min 0: 5.7 log10 cfu/ml
  E. coli O111:NM counts (log10 cfu/ml) at min 2: 5.5 log10 cfu/ml
  E. coli O111:NM counts (log10 cfu/ml) at min 5: 5.7 log10 cfu/ml
  E. coli O111:NM counts (log10 cfu/ml) at min 10: 5.5 log10 cfu/ml
  E. coli O111:NM counts (log10 cfu/ml) at min 20: 5.6 log10 cfu/ml
  E. coli O111:NM counts (log10 cfu/ml) at min 30: 5.7 log10 cfu/ml
  E. coli O111:NM counts (log10 cfu/ml) at min 60: 5.5 log10 cfu/ml
  E. coli O111:NM counts (log10 cfu/ml) at min 120: 5.4 log10 cfu/ml
E. coli O111:NM; [4]
  E. coli O111:NM counts (log10 cfu/ml) at min 0: 5.6 log10 cfu/ml
  E. coli O111:NM counts (log10 cfu/ml) at min 2: 5.5 log10 cfu/ml
  E. coli O111:NM counts (log10 cfu/ml) at min 5: 5.7 log10 cfu/ml
  E. coli O111:NM counts (log10 cfu/ml) at min 10: 5.5 log10 cfu/ml
  E. coli O111:NM counts (log10 cfu/ml) at min 20: 5.8 log10 cfu/ml
  E. coli O111:NM counts (log10 cfu/ml) at min 30: 5.6 log10 cfu/ml
  E. coli O111:NM counts (log10 cfu/ml) at min 60: 5.4 log10 cfu/ml
  E. coli O111:NM counts (log10 cfu/ml) at min 120: 5.5 log10 cfu/ml
E. coli O26:H11; [3]
  E. coli O26:H11 counts (log10 cfu/ml) at min: 0: 5.5 log10 cfu/ml
  E. coli O26:H11 counts (log10 cfu/ml) at min: 2: 5.4 log10 cfu/ml
  E. coli O26:H11 counts (log10 cfu/ml) at min: 5: 5.5 log10 cfu/ml
  E. coli O26:H11 counts (log10 cfu/ml) at min: 10: 5.5 log10 cfu/ml
  E. coli O26:H11 counts (log10 cfu/ml) at min: 20: 5.3 log10 cfu/ml
  E. coli O26:H11 counts (log10 cfu/ml) at min: 30: 5.2 log10 cfu/ml
  E. coli O26:H11 counts (log10 cfu/ml) at min: 60: 5.2 log10 cfu/ml
  E. coli O26:H11 counts (log10 cfu/ml) at min: 120: 5.0 log10 cfu/ml
E. coli O26:H11; [4]
  E. coli O26:H11 counts (log10 cfu/ml) at min: 0: 5.3 log10 cfu/ml
  E. coli O26:H11 counts (log10 cfu/ml) at min: 2: 5.4 log10 cfu/ml
  E. coli O26:H11 counts (log10 cfu/ml) at min: 5: 5.2 log10 cfu/ml
  E. coli O26:H11 counts (log10 cfu/ml) at min: 10: 5.4 log10 cfu/ml
  E. coli O26:H11 counts (log10 cfu/ml) at min: 20: 5.3 log10 cfu/ml
  E. coli O26:H11 counts (log10 cfu/ml) at min: 30: 5.4 log10 cfu/ml
  E. coli O26:H11 counts (log10 cfu/ml) at min: 60: 5.4 log10 cfu/ml
  E. coli O26:H11 counts (log10 cfu/ml) at min: 120: 5.4 log10 cfu/ml

## O=[O+][O-] [ozone]
E. coli O157:H7 [2]; 22-24 ppm ozone, 5° C., water with no rumen content, direct plating
  killing of 10^6-10^7 E. coli O157:H7/ml: undetectable level
E. coli O157:H7 [2]; 22-24 ppm ozone, 50 parts water to 1 part rumen content
  E. coli O157:H7 inactivation: Little to no E. coli O157:H7 inactivation
E. coli O157:H7 [2]; 22-24 ppm ozone, 100 parts water to 1 part rumen content or more
  effect of rumen content on antimicrobial activity of ozone: neutralized; also recorded: greatly decreased the antimicrobial activity
E. coli O157:H7 [2]; [5]
  E. coli O157:H7 (log10 cfu/ml) at min: 0: <1.7 log10 cfu/ml
  E. coli O157:H7 (log10 cfu/ml) at min: 1: <1.7 log10 cfu/ml
  E. coli O157:H7 (log10 cfu/ml) at min: 2: <1.7 log10 cfu/ml
  E. coli O157:H7 (log10 cfu/ml) at min: 5: <1.7 log10 cfu/ml
  E. coli O157:H7 (log10 cfu/ml) at min: 10: <1.7 log10 cfu/ml
  E. coli O157:H7 (log10 cfu/ml) at min: 20: <1.7 log10 cfu/ml
E. coli O157:H7 [2]; [6]
  E. coli O157:H7 (log10 cfu/ml) at min: 0: 5.6 log10 cfu/ml
  E. coli O157:H7 (log10 cfu/ml) at min: 1: 5.2 log10 cfu/ml
  E. coli O157:H7 (log10 cfu/ml) at min: 2: 5.1 log10 cfu/ml
  E. coli O157:H7 (log10 cfu/ml) at min: 5: 5.1 log10 cfu/ml
  E. coli O157:H7 (log10 cfu/ml) at min: 10: 5.4 log10 cfu/ml
  E. coli O157:H7 (log10 cfu/ml) at min: 20: 5.2 log10 cfu/ml
E. coli O157:H7 [2]; [7]
  E. coli O157:H7 (log10 cfu/ml) at min: 0: 6.2 log10 cfu/ml
  E. coli O157:H7 (log10 cfu/ml) at min: 1: 6.2 log10 cfu/ml
  E. coli O157:H7 (log10 cfu/ml) at min: 2: 6.4 log10 cfu/ml
  E. coli O157:H7 (log10 cfu/ml) at min: 5: 6.4 log10 cfu/ml
  E. coli O157:H7 (log10 cfu/ml) at min: 10: 6.5 log10 cfu/ml
  E. coli O157:H7 (log10 cfu/ml) at min: 20: 6.3 log10 cfu/ml
E. coli O157:H7 [2]; [8]
  E. coli O157:H7 (log10 cfu/ml) at min: 0: 5.2 log10 cfu/ml
  E. coli O157:H7 (log10 cfu/ml) at min: 1: 5.4 log10 cfu/ml
  E. coli O157:H7 (log10 cfu/ml) at min: 2: 5.5 log10 cfu/ml
  E. coli O157:H7 (log10 cfu/ml) at min: 5: 5.2 log10 cfu/ml
  E. coli O157:H7 (log10 cfu/ml) at min: 10: 4.5 log10 cfu/ml
  E. coli O157:H7 (log10 cfu/ml) at min: 20: 4.8 log10 cfu/ml
E. coli O157:H7 [2]; [9]
  E. coli O157:H7 (log10 cfu/ml) at min: 0: <1.7 log10 cfu/ml
  E. coli O157:H7 (log10 cfu/ml) at min: 1: <1.7 log10 cfu/ml
  E. coli O157:H7 (log10 cfu/ml) at min: 2: <1.7 log10 cfu/ml
  E. coli O157:H7 (log10 cfu/ml) at min: 5: <1.7 log10 cfu/ml
  E. coli O157:H7 (log10 cfu/ml) at min: 10: <1.7 log10 cfu/ml
  E. coli O157:H7 (log10 cfu/ml) at min: 20: <1.7 log10 cfu/ml
E. coli O157:H7 [2]; ozone 22-24 ppm at 5° C. or 8-12 ppm at 21° C., rumen content at ratios of 50:1 and higher
  effect on killing E. coli O157:H7: minimal effect
